# pEC50, pIC50: −log10 of the molar value.
# Legend:
# [1] = test system: IL-1β production in PMA-differentiated THP-1 cells; experiment: IL-1β production in PMA-differentiated THP-1 cells stimulated with gramicidin (hTHP-1 assay, 2% fetal bovine serum); assay type: cell-based; settings: Homo sapiens, hTHP-1 assay containing 2% fetal bovine serum
# Experimental: THP-1 cells were purchased from the American Type Culture Collection and sub-cultured according to instructions from the supplier. Cells were cultured in complete RPMI 1640 (containing 10% heat inactivated FBS, penicillin (100 units/ml) and streptomycin (100 μg/ml)), and maintained in log phase prior to experimental setup. Prior to the experiment, compounds were dissolved in dimethyl sulfoxide (DMSO) to generate a 30 mM stock. The compound stock was first pre-diluted in DMSO to 3, 0.34, 0.042 and 0.0083 mM intermediate concentrations and subsequently spotted using Echo550 liquid handler into an empty 384-well assay plate to achieve desired final concentration (e.g. 100, 33, 11, 3.7, 1.2, 0.41, 0.14, 0.046, 0.015, 0.0051, 0.0017 μM). DMSO was backfilled in the plate to achieve a final DMSO assay concentration of 0.37%. The plate was then sealed and stored at room temperature until required.
# THP-1 cells were treated with PMA (Phorbol 12-myristate 13-acetate) (20 ng/ml) for 16-18 hours. On the day of the experiment the media was removed and adherent cells were detached with trypsin for 5 minutes. Cells were then harvested, washed with complete RPMI 1640, spun down, and resuspended in RPMI 1640 (containing 2% heat inactivated FBS, penicillin (100 units/ml) and streptomycin (100 μg/ml). The cells were plated in the 384-well assay plate containing the spotted compounds at a density of 50,000 cells/well (final assay volume 50 μl). Cells were incubated with compounds for 1 hour and then stimulated with gramicidin (5 μM) (Enzo) for 2 hours. Plates were then centrifuged at 340 g for 5 min. Cell free supernatant (40 μL) was collected using a 96-channel PlateMaster (Gilson) and the production of IL-1β was evaluated by HTRF (cisbio). The plates were incubated for 18 h at 4° C. and read using the preset HTRF program (donor emission at 620 nm, acceptor emission at 668 nm) of the SpectraMax i3x spectrophotometer (Molecular Devices, software SoftMax 6). A vehicle only control and a dose titration of CRID3 (100-0.0017 μM) were run concurrently with each experiment. […]
# [2] = test system: ex-vivo stimulated IL-1β release in whole blood; experiment: First-in-human study: ex-vivo LPS stimulation of whole blood, IL-1β release (PD); assay type: cell-based
# Experimental: To determine the PD response to NLRP3 inhibition, whole blood samples were collected for exploratory PD analysis (Part A and Groups 1-3 of Part C). An ex-vivo stimulation by activating the NLRP3 inflammasome with lipopolysaccharide (LPS) was evaluated compared to control conditions, followed by analysis of blood cell release of the inflammatory marker IL-1β.
# Combined individual and mean plots of the individual IL-1β concentrations versus time are presented by treatment. Modeling of Compound IA effects on a corrected, stimulated ex vivo Lipopolysaccharide (LPS) challenge in whole blood included evaluation of the relationship between LPS challenge results by conditionally weighted residual modeling.
# [3] = fractional Emax model with Hill coefficient
smiles,measurement,setting,value
"CC(C)(O)c1ncc([S@](N)(=O)=NC(=O)Nc2c3c(cc4c2CCC4)CCC3)s1 [Compound IA, (R)-N′-((1,2,3,5,6,7-hexahydro-s-indacen-4-yl)carbamoyl)-2-(2-hydroxypropan-2-yl) thiazole-5-sulfonimidamide]",pIC50,[1],7.40 to 8.10
same,IC90,"[2]; Homo sapiens, LPS challenge, median, 90% CI 2.84, 3.54, read-out: IC90, inhibiting 90% of ex-vivo stimulated IL-1β release",3.18 µM
same,pIC50,"[2]; Homo sapiens, relative to 100% inhibition, 90% CI 0.118, 0.179",6.84
same,pEC50,"[2]; Homo sapiens, relative to estimated maximum effect, 90% CI 0.114, 0.171",6.85
same,EC90,"[2]; Homo sapiens, relative to estimated maximum effect, 90% CI 2.24, 2.94",2570 nM
same,"Emax of IL-1β, arithmetic mean (±SD)",[2]; [3],−0.985 (±0.00277)
same,"observed stimulation effect of IL-1β, arithmetic mean (±SD)",[2]; [3],1820 (±102) ng/L
same,time after dosing from which inhibition of IL-1β was observed,[2]; most dose levels,1 h
same,concentrations of IL-1β with increasing doses,[2]; single and multiple oral doses,dose-dependent decreases

# From US20250082611A1, “DOSING REGIMEN FOR AN NLRP3 INHIBITOR IN THE TREATMENT OF OSTEOARTHRITIS” (Novartis AG, priority 2021, published 2025)
